Reference: patent publication US9951226B2, “Compound based on cyanine scaffold for diagnosis sepsis by selectively detect glutathione” (EWHA UNIVERSITY—INDUSTRY COLLABORATION FOUNDATION, priority 2014, dated 2018)

Key:
[1] = Glutathione selectivity: absorption/fluorescence spectrum with various amino acids in HEPES buffer; type: biochemical
Experimental: 10 μM of the compound prepared in Example 2 was treated to HEPES (4-(2-hydroxyethyl)piperazine-1-ethanesulfonic acid) buffer (10 mM, pH=7.4) containing 10% DMSO and 100 μM of each glutathione, cysteine, homocysteine, dithiothreitol, phenylalanine, histidine, glutamine, lysine, glutamate, glycine, serine, alanine, arginine, methionine, and tyrosine, followed by observation of fluorescence spectrum at 25° C. by using RF-5310/PC fluorescence spectrometer (Shimada, 1 cm quartz cell).
An experiment was performed by the same manner as described in Experimental Example 3 except that the fragment 1 or the fragment 2 was used instead of the compound prepared in Example 2. […] To disclose the reason in relation to the above, the 3-dimensional structure of each of the compound of Example 1, the compound of Example 2, and the fragment 1 or the fragment 2, was investigated along with band-gap.
10 μM of the compound prepared in Example 3 and 100 μM of each endogenous amino acid (alanine, arginine, cysteine, glutamate, glycine, glutathione, homocysteine, histidine, lysine, methionine, serine, and tyrosine) were added to HEPES (4-(2-hydroxyethyl)piperazine-1-ethanesulfonic acid) buffer (10 mM, pH=7.4) containing 10% dimethylsulfoxide (DMSO), followed by observation of absorption spectrum presented through UV-vis sepctra (Scinco 3000 spectrophotometer, 1 cm quartz cell) at 25° C.
The following experiment was performed by the same manner as described in Experimental Example <15-1> except that fluorescence spectrum was observed by using RF-5310/PC fluorescence spectrometer (Shimada, 1 cm quartz cell) instead of observing absorption spectrum via UV-vis sepctra (Scinco 3000 spectrophotometer, 1 cm quartz cell) (λex=730 nm, λem=736 nm, slit:10/10 nm).

[2] = Absorption and fluorescence spectrum according to the concentration of glutathione; type: biochemical; conditions: for absorption signal at 830 nm / fluorescence signal at 780 nm: 10 μM compound
Experimental: 10 μM of the compound prepared in Example 2 and glutathione were added to HEPES (4-(2-hydroxyethyl)piperazine-1-ethanesulfonic acid) buffer (10 mM, pH=7.4) containing 10% dimethylsulfoxide (DMSO) with raising slowly the concentration of glutathione from 0 to 50 μM, during which the changes of absorption spectrum were observed using UV-vis sepctra (Scinco 3000 spectrophotometer, 1 cm quartz cell) at 25° C.
The following experiment was performed by the same manner as described in Experimental Example <4-1> except that fluorescence spectrum was observed by using RF-5310/PC fluorescence spectrometer (Shimada, 1 cm quartz cell) instead of observing absorption spectrum via UV-vis sepctra (Scinco 3000 spectrophotometer, 1 cm quartz cell) (λex=730 nm, λem=736 nm, slit:10/10 nm).
10 μM of the compound prepared in Example 3 and glutathione were added to HEPES (4-(2-hydroxyethyl)piperazine-1-ethanesulfonic acid) buffer (10 mM, pH=7.4) containing 10% dimethylsulfoxide (DMSO) with raising slowly the concentration of glutathione from 0 to 100 μM, during which the changes of absorption spectrum were observed using UV-vis sepctra (Scinco 3000 spectrophotometer, 1 cm quartz cell) at 25° C.
The following experiment was performed by the same manner as described in Experimental Example <16-1> except that fluorescence spectrum was observed by using RF-5310/PC fluorescence spectrometer (Shimada, 1 cm quartz cell) instead of observing absorption spectrum via UV-vis sepctra (Scinco 3000 spectrophotometer, 1 cm quartz cell) (λex=730 nm, λem=736 nm, slit:10/10 nm).

[3] = Detection of biothiol: absorption and fluorescence spectrum with endogenous amino acids in HEPES buffer; type: biochemical; conditions: 10 μM compound; for absorption strength at 750 nm: HEPES pH 7.4, 10% DMSO, 25° C.; for fluorescence strength at 736 nm: λex=730 nm
Experimental: 10 μM of the compound prepared in Example 1 and 100 μM of each endogenous amino acid (glutathione, cysteine, homocysteine, dithiothreitol, phenylalanine, histidine, glutamine, lysine, glutamate, glycine, serine, alanine, arginine, methionine, tyrosine) were added to HEPES (4-(2-hydroxyethyl)piperazine-1-ethanesulfonic acid) buffer (10 mM, pH=7.4) containing 10% dimethylsulfoxide (DMSO), followed by observation of absorption spectrum presented through UV-vis sepctra (Scinco 3000 spectrophotometer, 1 cm quartz cell) at 25° C.
The following experiment was performed by the same manner as described in Experimental Example <1-1> except that fluorescence spectrum was observed by using RF-5310/PC fluorescence spectrometer (Shimada, 1 cm quartz cell) instead of observing absorption spectrum via UV-vis sepctra (Scinco 3000 spectrophotometer, 1 cm quartz cell) (λex=730 nm, λem=736 nm, slit:10/10 nm).

HeLa cells = assay: Detection of intracellular biothiol in HeLa cells, confocal laser scanning microscope; type: cell-based, human; conditions: 10 μM compound
Experimental: HeLa cells (human adenocarcinoma cells, Korea Cell Line Bank) were cultured in RPMI 1640 (Roswell Park Memorial Institute) supplemented with 10% heat-inactivated fetal bovine serum (FBS), 100 U/mL penicillin, and 100 U/mL streptomycin in a 37° C. 5% CO2 incubator. The cells were either treated or not treated with 1 mM of N-methylmaleimide (NMM) known as a thiol blocker for 20 minutes. 100 μM of each amino acid containing thiol group (R—SH) such as cysteine, homocysteine, and glutathione was added thereto. Then, the cells were seeded in 35-mm glass bottomed dishes at the density of 3×10^5 cells/dish in 1640 medium. 24 hours later, 10 μM of the compound prepared in Example 1 was added thereto, followed by culture at 37° C. for 20 minutes. The cells were washed with DPBS (Dulbecco's Phosphate Buffered Saline) twice to eliminate the remaining compound, followed by imaging with confocal laser scanning microscope (Fluoview 1200, Olympus, Japan). At this time, the emitting filter with the excitation wavelength of 635 nm and the band-path (BP) of 655˜755 nm was used.

[4] = 10 μM compound, 100 μM other amino acids except glutathione
[5] = glutathione raised from 0 to 100 μM
[6] = 100 μM amino acids containing thiol group (glutathione, cysteine, homocysteine, dithiothreitol)
[7] = 100 μM other amino acids not-containing thiol group

SMILES: CCCN1/C(=C/C=C2\CCCC(/C=C/C3=[N+](CCC)c4ccccc4C3(C)C)=C2N2CCNCC2)C(C)(C)c2ccccc21 [fragment 2, 2-((E)-2-((E)-3-((E)-2-(3,3-dimethyl-1-propylindolin-2-ylidene)ethylidene)-2-(piperazine-1-yl)cyclohex-1-enyl)binyl)-3,3-dimethyl-1-propyl-3H-indolium iodide]
- changes in absorption or fluorescence spectrum (capacity of detecting glutathione) ([1]; same manner as Experimental Example 3, fragment instead of Example 2): no changes in absorption or fluorescence spectrum were detected

SMILES: CCCCN1C(=O)c2cccc3c(S(=O)(=O)N4CCN(C5=C(/C=C/C6=[N+](CCC)c7ccccc7C6(C)C)CCC/C5=C\C=C5\N(CCC)c6ccccc6C5(C)C)CC4)ccc(c23)C1=O.[I-] [Example 3, 2-((E)-2-((E)-2-(4-((2-butyl-1,3-dioxo-2,3-dihydro-1H-benzeneisoquinoline-6-yl)sulfonyl)piperazine-1-yl)-3-((E)-2-(3,3-dimethyl-1-propylindolin-2-ylidene)ethylidene)cyclohex-1-en-1-yl)binyl)-3,3-dimethyl-1-propyl-3H-indolium iodide]
- fluorescence signal near 780 nm ([1]; 10 μM compound, 100 μM glutathione): strong fluorescence signal
- absorption signal near 830 nm ([1]; 10 μM compound, 100 μM glutathione, HEPES pH 7.4, 10% DMSO, 25° C.): weak absorption signal
- absorption signal at 830 nm [1, 4]: strong absorption signal
- fluorescence signal at 780 nm [1, 4]: weak fluorescence signal
- absorption signal at 830 nm ([2]; glutathione not added): strong absorption signal
- fluorescence signal at 780 nm ([2]; glutathione not added): weak fluorescence signal
- absorption signal at 830 nm [2, 5]: getting weaker
- fluorescence signal at 780 nm [2, 5]: getting stronger
- dependence of the reaction on glutathione concentration ([2]; conclusion from absorption and fluorescence spectra): dose-dependently

SMILES: CCCN1/C(=C/C=C2\CCCC(/C=C/C3=[N+](CCC)c4ccccc4C3(C)C)=C2N2CCN(S(=O)(=O)c3ccc([N+](=O)[O-])cc3[N+](=O)[O-])CC2)C(C)(C)c2ccccc21.[I-] [Example 1, 2-((E)-2-((E)-3-((E)-2-(3,3-dimethyl-1-propylindolium-2-ylidene)ethylidene)-2-(4-(2,4-dinitrophenylsulfonyl)piperazine-1-yl)cyclohex-1-enyl)binyl)-3,3-dimethyl-1-propyl-3H-indolium iodide]
- absorption strength at 750 nm [3, 6]: strong absorption strength
- fluorescence strength at 736 nm [3, 6]: strong fluorescence strength
- absorption strength at 750 nm [3, 7]: weak absorption strength
- fluorescence strength at 736 nm [3, 7]: weak fluorescence strength
- red fluorescence under confocal laser scanning microscope (HeLa cells; HeLa cells pre-treated with NMM, 100 μM cysteine added): strong red fluorescence was observed
- red fluorescence under confocal laser scanning microscope (HeLa cells; HeLa cells pre-treated with NMM, 100 μM glutathione added): strong red fluorescence was observed
- red fluorescence under confocal laser scanning microscope (HeLa cells; HeLa cells pre-treated with NMM, 100 μM homocysteine added): strong red fluorescence was observed
- red fluorescence under confocal laser scanning microscope (HeLa cells; HeLa cells pre-treated with thiol blocker NMM 1 mM): red fluorescence was not observed
- red fluorescence under confocal laser scanning microscope (HeLa cells; HeLa cells, 20 minutes): strong red fluorescence was detected
